Laboratory results from ChEMBL document CHEMBL1201862, “PubChem BioAssay data set” (2004).
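A five-concentration, 48-hour dose response in 96-well plates underlies each endpoint, interpolated linearly between surrounding concentrations. GI50 is the concentration that inhibits growth by half.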 Active and inactive are the calls of the source. Rule as the data show it: active = GI50 up to about 1.1 µM and inactive = higher.

Experiments:
Experiment in all cases: NCI tumour cell line growth inhibition, 48 h
[1] = test system: NCI-H460
[2] = test system: A549
[3] = test system: UO-31
[4] = test system: MOLT-4
[5] = test system: SK-MEL-28
[6] = test system: SNB-78
[7] = test system: ACHN
[8] = test system: HCT-116
[9] = test system: SF-539
[10] = test system: SW-620
[11] = test system: LXFL 529
[12] = test system: OVCAR-4
[13] = test system: U-251
[14] = test system: SF-268
[15] = test system: HL-60
[16] = test system: NCI-H226
[17] = test system: SK-OV-3
[18] = test system: TK-10
[19] = test system: NCI-H522
[20] = test system: NCI-H23
[21] = test system: SR
[22] = test system: LOX IMVI
[23] = test system: UACC-62
[24] = test system: SNB-19
[25] = test system: CCRF-CEM
[26] = test system: 786-0
[27] = test system: RXF 631
[28] = test system: K562
[29] = test system: SF-295
[30] = test system: HT-29
[31] = test system: M14
[32] = test system: DLD-1
[33] = test system: EKVX
[34] = test system: OVCAR-8
[35] = test system: M19-MEL
[36] = test system: CAKI-1
[37] = test system: HCC 2998
[38] = test system: HOP-62
[39] = test system: Malme-3M
[40] = test system: SN12C
[41] = test system: SK-MEL-2
[42] = test system: HCT-15
[43] = test system: A498
[44] = test system: KM12
[45] = test system: HOP-92
[46] = test system: SNB-75
[47] = test system: KM-20L2
[48] = test system: UACC-257
[49] = test system: DMS-273
[50] = test system: SK-MEL-5
[51] = test system: OVCAR-3
[52] = test system: XF498
[53] = test system: COLO 205
[54] = test system: OVCAR-5
[55] = test system: RXF 393
[56] = test system: RPMI-8226
[57] = test system: IGROV-1
[58] = test system: DMS-114
[59] = test system: HOP-18
[60] = test system: MCF7
[61] = test system: MDA-MB-231
[62] = test system: DU-145
[63] = test system: PC-3
[64] = test system: MDA-MB-435
[65] = test system: T47D
[66] = test system: Hs-578T
[67] = test system: BT-549
[68] = test system: MDA-N

Measured: GI50

O=C(Cc1nc2ccccc2s1)NC12CC3CC(CC(C3)C1)C2
inactive: [1] > 100 µM | [2] > 100 µM | [3] > 100 µM | [4] > 100 µM | [5] > 100 µM | [6] > 100 µM | [7] > 100 µM | [8] > 100 µM | [9] > 100 µM | [10] > 100 µM | [11] > 100 µM | [12] > 100 µM | [13] > 100 µM | [14] > 100 µM | [15] > 100 µM | [16] > 100 µM | [17] > 100 µM | [18] > 100 µM | [19] > 100 µM | [20] > 100 µM | [21] > 100 µM | [22] > 100 µM | [23] > 100 µM | [24] > 100 µM | [25] > 100 µM | [26] > 100 µM | [27] > 100 µM | [28] > 100 µM | [29] > 100 µM | [30] > 100 µM | [31] > 100 µM | [32] > 100 µM | [33] > 100 µM | [34] > 100 µM | [35] > 100 µM | [36] > 100 µM | [37] > 100 µM | [38] > 100 µM | [39] > 100 µM | [40] > 100 µM | [41] > 100 µM | [43] > 100 µM | [44] > 100 µM | [45] > 100 µM | [46] > 100 µM | [47] > 100 µM | [48] > 100 µM | [49] > 100 µM
> 100 µM: [42]

CCN(CC)CCNc1ccc2ncn3c4cc(O)ccc4c(=O)c1c23
3.65 µM: [42]
inactive: [1] 3.04 µM | [50] 3.66 µM | [2] 3.31 µM | [3] 5.71 µM | [51] 3.37 µM | [5] 4.73 µM | [6] 5.35 µM | [52] 2.9 µM | [7] 1.61 µM | [8] 1.57 µM | [53] 2.41 µM | [9] 3.25 µM | [54] 11 µM | [10] 1.88 µM | [11] 2.56 µM | [12] 2.45 µM | [13] 1.53 µM | [14] 2.09 µM | [15] 2.84 µM | [16] 2.82 µM | [17] 9.62 µM | [18] 6.65 µM | [19] 1.22 µM | [20] 3.55 µM | [21] 2.26 µM | [22] 1.87 µM | [23] 5.65 µM | [24] 3.9 µM | [25] 1.32 µM | [26] 2.48 µM | [27] 2.1 µM | [28] 2.11 µM | [29] 2.5 µM | [30] 1.95 µM | [31] 4.5 µM | [32] 3.76 µM | [33] 8.77 µM | [34] 1.15 µM | [35] 3.94 µM | [36] 3.05 µM | [37] 3.84 µM | [38] 4.85 µM | [39] 3.97 µM | [40] 3.11 µM | [41] 8.59 µM | [43] 4.86 µM | [44] 4.61 µM | [56] 2.17 µM | [57] 4.25 µM | [58] 4.29 µM | [46] 4.39 µM | [47] 3.7 µM | [48] 5.37 µM | [49] 2.77 µM
active: [4] 0.668 µM | [55] 0.536 µM | [45] 0.519 µM

CC(Oc1ccc2c(-c3ccc(Cl)cc3)cc(=O)oc2c1)C(=O)O (centres undefined)
inactive: [1] > 100 µM | [50] > 100 µM | [2] > 100 µM | [3] > 100 µM | [51] > 100 µM | [4] > 100 µM | [5] > 100 µM | [6] > 100 µM | [52] 2.35 µM | [7] > 100 µM | [8] > 100 µM | [53] > 100 µM | [9] > 100 µM | [10] > 100 µM | [11] > 100 µM | [12] > 100 µM | [13] > 100 µM | [14] > 100 µM | [15] > 100 µM | [16] > 100 µM | [17] > 100 µM | [18] > 100 µM | [19] > 100 µM | [20] > 100 µM | [21] > 100 µM | [22] > 100 µM | [23] > 100 µM | [24] > 100 µM | [25] > 100 µM | [26] > 100 µM | [55] > 100 µM | [27] > 100 µM | [28] > 100 µM | [29] > 100 µM | [30] > 100 µM | [31] > 100 µM | [32] > 100 µM | [33] > 100 µM | [34] > 100 µM | [36] > 100 µM | [37] > 100 µM | [38] > 100 µM | [39] > 100 µM | [40] > 100 µM | [43] > 100 µM | [44] > 100 µM | [59] > 100 µM | [45] > 100 µM | [57] > 100 µM | [46] > 100 µM | [47] > 100 µM | [48] > 100 µM

COC1/C=C\C=C(/C)C(=O)Nc2cc3nc4ccc(Br)cc4oc-3c(c2=O)CC(C)CC(OC)C(O)C(C)/C=C(\C)C1OC(N)=O (centres undefined)
inactive: [2] 3.61 µM | [54] 1.64 µM | [13] 4.46 µM | [16] 1.75 µM | [24] 13 µM | [29] 12.6 µM | [33] 3.17 µM | [38] 4.1 µM | [43] 13.5 µM | [44] 2.26 µM | [46] 7.08 µM
0.142 µM: [42]
active: [1] 0.63 µM | [50] 0.178 µM | [3] 0.12 µM | [51] 0.082 µM | [4] < 0.0103 µM | [5] 0.0137 µM | [6] 0.998 µM | [52] < 0.0202 µM | [7] 0.21 µM | [8] 0.0276 µM | [53] 0.01 µM | [9] 0.44 µM | [10] 0.01 µM | [11] < 0.0147 µM | [12] 0.469 µM | [60] 0.000752 µM | [61] 0.00849 µM | [14] 0.499 µM | [15] 0.0128 µM | [17] 0.129 µM | [18] 0.0424 µM | [19] 0.01 µM | [21] 0.0116 µM | [62] 0.0458 µM | [22] 0.0565 µM | [63] 0.931 µM | [23] 0.0391 µM | [26] 0.0227 µM | [55] < 0.0112 µM | [64] 0.00389 µM | [28] 0.01 µM | [65] 0.00277 µM | [66] 0.0628 µM | [30] < 0.0396 µM | [31] 0.0453 µM | [32] 0.0447 µM | [34] 0.09 µM | [35] 0.0383 µM | [67] 0.00429 µM | [36] 0.292 µM | [37] 0.126 µM | [39] 0.0179 µM | [40] 0.0481 µM | [41] 0.0741 µM | [68] 0.00451 µM | [59] 0.01 µM | [45] 0.0134 µM | [56] 0.119 µM | [57] 0.436 µM | [58] 0.0604 µM | [47] < 0.0181 µM | [48] 0.0556 µM | [49] < 0.0216 µM
